Consider 2 compounds from US20230031280A1, “GLP-2 FUSION POLYPEPTIDES AND USES FOR TREATING AND PREVENTING GASTROINTESTINAL CONDITIONS” (SHIRE-NPS PHARMACEUTICALS, INC., priority 2017, published 2023).

Like-named read-outs stand apart in the source and are kept apart here.

The target in series [1] is monomer/dimer self-association. Briefly: Microscale thermophoresis (MST) monomer/dimer equilibrium. The series is classed as physicochemical. How it is done: (§1) Microscale thermophoresis (MST) and nano differential scanning fluorimetry (NanoDSF) were performed to characterize the dimer-monomer transition. MST was used to determine the monomer/dimer equilibrium dissociation constant Kd. MST is based on thermodriven diffusion of molecules while NanoDSF is based on Trp fluorescence and is commonly used for thermostability Tm.
(In general: In MST a laser heats a spot of the sample, and binding alters the fluorescence response.)

The target of series [2] is GLP-2-Fc self-association. Briefly: NanoDSF at room temperature, monomer/dimer self-association. The class given is physicochemical. As to the method: as §1
In the NanoDSF assay, room temperature is used and one tryptophan in GLP-2 is targeted that potentially undergoes conformational changes during GLP-2-Fc self-association. Only the tryptophan fluorescence from the protein contributes to the signal. If tryptophan is buried or stable, the peak is at 330 nm and if the tryptophan is exposed or flexible, the peak is at 350 nm.
For orientation: DSF heats the sample and reads unfolding from a dye or from intrinsic fluorescence.

Series [3] can be described thus: Cynomolgus monkey pharmacokinetic study. The series is classed as in vivo, cynomolgus monkeys. To be noted: subcutaneous, 12.5 nmol/kg. How it is done:
Pharmacokinetics studies of teduglutide, GLP-2 Peptibody B and GLP-2 Peptibody K were formed in cynomolgus monkeys with citrulline assayed as a biomarker of GLP-2 concentration. In the study, 12.5 nmol/kg teduglutide was administered subcutaneously to a group of 6 male cynomolgus monkeys at day 1. Then for one set of 2 monkeys, 25 nmol/kg GLP-2 Peptibody B was administered intravenously at day 7, day 21, day 28, day 35, and day 42. For another set of 3 monkeys, 25 nmol/kg GLP-2 Peptibody B was administered subcutaneously at day 7, day 21, day 28, day 35, and day 42. For another set of monkeys, 5 nmol/kg GLP-2 Peptibody K was administered intravenously (2 monkeys) and subcutaneously (3 monkeys) at day 7, day 21, day 28, day 35, and day 42. For another set of monkeys, 25 nmol/kg GLP-2 Peptibody K was administered subcutaneously (3 monkeys) and intravenously (2 monkeys) at day 7, day 21, day 28, day 35, and day 42.

For series [4] the following is noted: cited from earlier work.
The nature of series [5]: Mouse pharmacokinetics of GLP-2 peptibody K274. The series is classed as in vivo. Particulars: CD1 mice, Q3D over 14 days. As to the method:
A pharmacokinetics analysis was performed in CD1 mice. […] Mice were divided into groups, with one group administered 0.45 mg/kg every three days (Q3D), another administered 1.5 mg/kg Q3D, another administered 4.5 mg/kg Q3D, and another administered 15 mg/kg Q3D over a 14 day period. After dosing was discontinued, concentrations were measured 3, 9, 14, and 21 days later.

Series [6] is described as follows: Rat pharmacokinetic comparability with/without C-terminal lysine. The series is classed as in vivo, Sprague-Dawley rats. To be noted: 1 mg/kg, intravenous and subcutaneous. As to the method:
1 mg/kg of total GLP-2 peptibody K protein was administered subcutaneously to one group of six male Sprague-Dawley rats. 1 mg/kg of total GLP-2 peptibody K274 protein was administered intravenously to another group of six male Sprague-Dawley rats. 1 mg/kg of total GLP-2 peptibody B protein was administered subcutaneously to a third group of five male Sprague-Dawley rats. 1 mg/kg of total GLP-2 peptibody B264 protein was administered subcutaneously to a fourth group of five male Sprague-Dawley rats.
For all of the above groups, plasma samples were taken pre-dose, and at the following time points post-dose: 5 minutes (day 1), 10 minutes (day 1), 20 minutes (day 1), 30 minutes (day 1), 1 hour (day 1), 2 hours (day 1), 6 hours (day 1), 24 hours (day 2), 48 hours (day 3), 72 hours (day 4), 120 hours (day 6), 168 hours (day 8), 240 hours (day 11), and 336 hours (day 15).
Tables showing the pharmacokinetic data comparing intravenously administered GLP-2 peptibody K and GLP-2 peptibody K274 are in FIG. 10B. Tables showing the pharmacokinetic data comparing subcutaneously administered GLP-2 peptibody K and GL-2 peptibody K274 are in FIG. 10C.

In series [7] the test system is CD-1 mice. Briefly: Pharmacodynamic plateau study (small intestine weight). The series is classed as in vivo. To be noted: female CD-1 mice. How it is done:
Various doses of GLP-2 peptibody K274 were analyzed in female CD-1 mice to assess the pharmacodynamic plateau, with the primary endpoint a measurement of the small intestinal weight relative to the total body weight and a histology study of the length of villi. Eight groups of six females each were formed. In two groups, only the vehicle was administered Q3D for as a negative control. In four groups, the following doses were administered Q3D over 14 days: 0.45 mg/kg, 1.5 mg/kg, 4.5 mg/kg and 15 mg/kg. In one additional group, 4.5 mg/kg was administered Q3D for 14 days with the study ending four days later at day 18. In another additional group, 4.5 mg/kg was administered Q3D for 14 days with the study ending seven days later at day 21.
For the primary endpoint, the small intestine weight in grams is shown in FIG. 12A, the small intestine weight normalized to body weight is shown in FIG. 12B, and the colon weight normalized to body weight is shown in FIG. 12C. A dose of 4.5 mg/kg had maximum effect.
FIG. 13B is a graph depicting the percentage change in small intestine weight for both vehicle and GLP-2 peptibody K274.

For series [8], the system named is CD-1 mice. Put plainly: Histology study of villi length, washout period. The class given is in vivo, female CD-1 mice. To be noted: 4.5 mg/kg Q3D over 14 days, days 15, 18, 21. As to the method: Various doses of GLP-2 peptibody B264 were analyzed to assess the pharmacodynamic plateau, with the primary endpoint a measurement of the small intestinal weight relative to the total body weight and a histology study of the length of villi. 11 groups of six female CD-1 mice each were formed.
For histology, four micron paraffin sections were prepared for H&E and Ki67 IHC staining. After whole slide scanning, an imagescope was used to measure villi length and crypt depth, and to analyze Ki67. The antibody against Ki67 is a rabbit antibody sold by Adcam®, catalog number ab 616667. The antibody was used at a working concentration of 1:100 and was detected using a Leica® Refine Kit.
The first day after the washout period ends is day 15, the second day is day 16, etc. Day 2 of the washout period corresponds with day 15. Day 5 of the washout period corresponds with day 18. Day 8 of the washout period corresponds with day 21. D15, D18, and D21 correspond to days 15, 18 and 21 on which the villi length was measured.

The test system of another series is mice. Put plainly: Fat (triglyceride) tolerance test with olive oil bolus. The series is classed as in vivo. To be noted: female mice, 4.5 mg/kg every 3 days for 13 days, olive oil bolus 10 mL/kg, vs vehicle. As to the method: A fat tolerance assay was performed in mice to assess the ability of GLP-2 peptibody K274 to promote absorption of dietary fats. Dietary fat is hydrolyzed into free fatty acids and glycerides, which are transported through the intestinal villi and absorbed by enterocytes. The enterocytes synthesize the triglycerides, which then enter the bloodstream. Such postprandial triglycerides peak in the bloodstream at about 3 hours after ingestion of a fat-rich meal.
It is hypothesized that GLP-2 peptibody K274, by enhancing length of the intestinal villi, would improve the absorption of fatty acids in a mouse model of short bowel syndrome. Assaying for an increase in peak postprandial triglycerides allows for detection of such increased absorption.
Female mice were divided into two groups of […] mice each. Both groups were treated every 3 days for a total of 13 days either with 4.5 mg/kg K274 peptibody (treated group) or vehicle (control group). On day 14 after start of treatment, mice in both groups were fasted for 6 hours followed by administration of an olive oil bolus of 10 mL/kg. Mice in the treated and control groups were divided into 6 subgroups of 6 animals each. […] Plasma triglyceride concentrations were measured on a Cobas C311 instrument (Roche) using the TRIGB assay kit.

Consider `CC[C@H](C)[C@H](NC(=O)[C@H](Cc1ccccc1)NC(=O)[C@H](CC(=O)O)NC(=O)[C@H](CCCNC(=N)N)NC(=O)[C@H](C)NC(=O)[C@H](C)NC(=O)[C@H](CC(C)C)NC(=O)[C@H](CC(N)=O)NC(=O)[C@H](CC(=O)O)NC(=O)[C@H](CC(C)C)NC(=O)[C@@H](NC(=O)[C@@H](NC(=O)[C@H](CC(N)=O)NC(=O)[C@H](CCSC)NC(=O)[C@H](CCC(=O)O)NC(=O)[C@H](CC(=O)O)NC(=O)[C@H](CO)NC(=O)[C@H](Cc1ccccc1)NC(=O)[C@H](CO)NC(=O)CNC(=O)[C@H](CC(=O)O)NC(=O)CNC(=O)[C@@H](N)Cc1c[nH]cn1)[C@@H](C)O)[C@@H](C)CC)C(=O)N[C@@H](CC(N)=O)C(=O)N[C@@H](Cc1c[nH]c2ccccc12)C(=O)N[C@@H](CC(C)C)C(=O)N[C@H](C(=O)N[C@@H](CCC(N)=O)C(=O)N[C@H](C(=O)N[C@@H](CCCCN)C(=O)N[C@H](C(=O)N[C@H](C(=O)N[C@@H](CC(=O)O)C(=O)O)[C@@H](C)O)[C@@H](C)CC)[C@@H](C)O)[C@@H](C)CC` [teduglutide], for which the figures for the Kd in series [1] and in series [2] were 24 ± 3 µM and 77 ± 14 µM, respectively. For the same compound, in series [3], the Vc worked out at 0.218 L/kg. Besides, in series [3], the “association constant (ka)” value turned out to be 9.67 day⁻¹. Also, the values for the half-life in series [4] (SBS patients) and in series [4] (healthy patients) were around 1.3 h and “approximately 2 hours”, respectively.

As to “GLP-2 peptibody K274: GLP-2[A2G]-GGGGSGGGGSGGGGS linker-IgG1 Fc (LALA) without C-terminal lysine; SEQ ID NO: 7”, in [5], the CL/F (commonly clearance divided by bioavailability, as obtained after extravascular dosing) came to 3.39 mL/h/kg and the Vc came out at 0.213 L/kg. Moreover, in [6], the “pharmacokinetic comparability of K and K274” value is reported as “identical from a pharmacokinetic point of view”. In addition, the “persistence of increased small intestine weight normalized to body weight after dosing” value with CD-1 mice [7] (4.5 mg/kg Q3D for 14 days, washout) was “persisted for at least five days after dosing”. For the same compound, the “dose with maximum effect on small intestine / colon weight” value in the series with CD-1 mice [7] (Q3D over 14 days) worked out at 4.5 mg/kg. In the series with CD-1 mice [8], the “persistence of villi length during washout period” value is “more persistence than does GLP-2 peptibody B264”. In addition, the “postprandial triglyceride concentration in the bloodstream” value with mice was “significantly higher”.
